In PubChem BioAssay (NCI):
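Growth conditions: 96-well plates. Treatment: test compound, 48 hours, 5 concentrations. Analysis: linear interpolation between bracketing concentrations; unreached endpoints set to highest concentration. TGI denotes the concentration required for complete inhibition of growth.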

Assays:
Test in all cases: growth of human tumour cells (NCI), 48 h
[1] = test system: 786-0 renal
[2] = test system: A498 renal
[3] = test system: A549 NSCLC
[4] = test system: ACHN renal
[5] = test system: BT-549 breast
[6] = test system: CAKI-1 renal
[7] = test system: CCRF-CEM leukemia
[8] = test system: COLO 205 colon
[9] = test system: DU-145 prostate
[10] = test system: EKVX NSCLC
[11] = test system: HCC-2998 colon
[12] = test system: HCT-116 colon
[13] = test system: HCT-15 colon
[14] = test system: HL-60(TB) leukemia
[15] = test system: HOP-62 NSCLC
[16] = test system: HOP-92 NSCLC
[17] = test system: HS 578T breast
[18] = test system: HT29 colon
[19] = test system: IGROV1 ovarian
[20] = test system: K-562 leukemia
[21] = test system: KM12 colon
[22] = test system: LOX IMVI melanoma
[23] = test system: M14 melanoma
[24] = test system: MALME-3M melanoma
[25] = test system: MCF7 breast
[26] = test system: MDA-MB-231 breast
[27] = test system: MDA-MB-435
[28] = test system: MDA-N
[29] = test system: MOLT-4 leukemia
[30] = test system: NCI-H23 lung
[31] = test system: NCI-H460 lung
[32] = test system: NCI-H522 lung
[33] = test system: NCI/ADR-RES ovarian
[34] = test system: OVCAR-3 ovarian
[35] = test system: OVCAR-4 ovarian
[36] = test system: OVCAR-5 ovarian
[37] = test system: OVCAR-8 ovarian
[38] = test system: PC-3 prostate
[39] = test system: RPMI-8226 leukemia
[40] = test system: RXF 393 renal
[41] = test system: SF-268 CNS
[42] = test system: SF-295 CNS
[43] = test system: SF-539 CNS
[44] = test system: SK-MEL-2 melanoma
[45] = test system: SK-MEL-28 melanoma
[46] = test system: SK-MEL-5 melanoma
[47] = test system: SN12C renal
[48] = test system: SNB-19 CNS
[49] = test system: SNB-75 CNS
[50] = test system: SW-620 colon
[51] = test system: T-47D breast
[52] = test system: TK-10 renal
[53] = test system: U251 CNS
[54] = test system: UACC-257 melanoma
[55] = test system: UACC-62 melanoma
[56] = test system: UO-31 renal
[57] = test system: SK-OV-3 ovarian
[58] = test system: NCI-H226 lung
[59] = test system: SR leukemia

Compound: O=C(NCCCCCCNC(=O)c1cccc2ccccc12)Nc1cccc2ccccc12
- TGI [1]: > 100 µM
- TGI [2]: > 100 µM
- TGI [3]: > 100 µM
- TGI [4]: > 100 µM
- TGI [5]: > 100 µM
- TGI [6]: > 100 µM
- TGI [7]: > 100 µM
- TGI [8]: > 100 µM
- TGI [9]: > 100 µM
- TGI [10]: > 100 µM
- TGI [11]: > 100 µM
- TGI [12]: > 100 µM
- TGI [13]: > 100 µM
- TGI [14]: > 100 µM
- TGI [15]: > 100 µM
- TGI [16]: > 100 µM
- TGI [17]: > 100 µM
- TGI [18]: > 100 µM
- TGI [19]: > 100 µM
- TGI [20]: > 100 µM
- TGI [21]: > 100 µM
- TGI [22]: > 100 µM
- TGI [23]: > 100 µM
- TGI [24]: > 100 µM
- TGI [25]: > 100 µM
- TGI [26]: > 100 µM
- TGI [27]: > 100 µM
- TGI [28]: > 100 µM
- TGI [29]: > 100 µM
- TGI [30]: > 100 µM
- TGI [31]: > 100 µM
- TGI [32]: > 100 µM
- TGI [33]: > 100 µM
- TGI [34]: > 100 µM
- TGI [35]: > 100 µM
- TGI [36]: > 100 µM
- TGI [37]: > 100 µM
- TGI [38]: > 100 µM
- TGI [39]: > 100 µM
- TGI [40]: > 100 µM
- TGI [41]: > 100 µM
- TGI [42]: > 100 µM
- TGI [43]: > 100 µM
- TGI [44]: > 100 µM
- TGI [45]: > 100 µM
- TGI [46]: > 100 µM
- TGI [47]: > 100 µM
- TGI [48]: > 100 µM
- TGI [49]: > 100 µM
- TGI [50]: > 100 µM
- TGI [51]: > 100 µM
- TGI [52]: > 100 µM
- TGI [53]: > 100 µM
- TGI [54]: > 100 µM
- TGI [55]: > 100 µM
- TGI [56]: > 100 µM

Compound: NC(N)=NCCN=C(N)N
- TGI [1]: > 100 µM
- TGI [2]: > 100 µM
- TGI [3]: > 100 µM
- TGI [4]: > 100 µM
- TGI [5]: > 100 µM
- TGI [6]: > 100 µM
- TGI [7]: > 100 µM
- TGI [8]: > 100 µM
- TGI [9]: > 100 µM
- TGI [10]: > 100 µM
- TGI [11]: > 100 µM
- TGI [12]: > 100 µM
- TGI [13]: > 100 µM
- TGI [14]: > 100 µM
- TGI [15]: > 100 µM
- TGI [16]: > 100 µM
- TGI [17]: > 100 µM
- TGI [18]: > 100 µM
- TGI [19]: > 100 µM
- TGI [20]: > 100 µM
- TGI [21]: > 100 µM
- TGI [22]: > 100 µM
- TGI [23]: > 100 µM
- TGI [24]: > 100 µM
- TGI [25]: > 100 µM
- TGI [26]: > 100 µM
- TGI [27]: > 100 µM
- TGI [28]: > 100 µM
- TGI [29]: > 100 µM
- TGI [30]: > 100 µM
- TGI [31]: > 100 µM
- TGI [32]: > 100 µM
- TGI [33]: > 100 µM
- TGI [34]: > 100 µM
- TGI [35]: > 100 µM
- TGI [36]: > 100 µM
- TGI [37]: > 100 µM
- TGI [38]: > 100 µM
- TGI [39]: > 100 µM
- TGI [40]: > 100 µM
- TGI [41]: > 100 µM
- TGI [42]: > 100 µM
- TGI [43]: > 100 µM
- TGI [44]: > 100 µM
- TGI [45]: > 100 µM
- TGI [46]: > 100 µM
- TGI [57]: > 100 µM
- TGI [47]: > 100 µM
- TGI [48]: > 100 µM
- TGI [49]: > 100 µM
- TGI [50]: > 100 µM
- TGI [51]: > 100 µM
- TGI [52]: > 100 µM
- TGI [53]: > 100 µM
- TGI [54]: > 100 µM
- TGI [55]: > 100 µM
- TGI [56]: > 100 µM

Compound: Nc1nc(Cl)c(N)c(NC23CC4CC(CC(C4)C2)C3)n1
- TGI [1]: 3.03 µM
- TGI [2]: 8.13 µM
- TGI [3]: 6.16 µM
- TGI [4]: 4.69 µM
- TGI [5]: 6.76 µM
- TGI [6]: 3.84 µM
- TGI [7]: 5 µM
- TGI [8]: 3.13 µM
- TGI [9]: 7.05 µM
- TGI [10]: 5.36 µM
- TGI [11]: 7.89 µM
- TGI [12]: 2.92 µM
- TGI [13]: 13.3 µM
- TGI [15]: 4.3 µM
- TGI [16]: > 19.9 µM
- TGI [17]: > 100 µM
- TGI [18]: 3.42 µM
- TGI [19]: > 100 µM
- TGI [20]: 6.87 µM
- TGI [21]: 3.67 µM
- TGI [22]: > 100 µM
- TGI [23]: 3.02 µM
- TGI [24]: 10.1 µM
- TGI [25]: 3.78 µM
- TGI [26]: 3.83 µM
- TGI [27]: 3.41 µM
- TGI [28]: 3.31 µM
- TGI [29]: 4.81 µM
- TGI [58]: 4.22 µM
- TGI [30]: 8.43 µM
- TGI [31]: 17.7 µM
- TGI [32]: 4.26 µM
- TGI [34]: 3.62 µM
- TGI [35]: 4.21 µM
- TGI [36]: 2.84 µM
- TGI [37]: 6.59 µM
- TGI [38]: 2.97 µM
- TGI [39]: 5.02 µM
- TGI [40]: 3.24 µM
- TGI [41]: > 20.5 µM
- TGI [42]: 11.3 µM
- TGI [43]: 3.72 µM
- TGI [44]: 1.16 µM
- TGI [45]: 3.6 µM
- TGI [46]: 3.82 µM
- TGI [57]: 17.4 µM
- TGI [47]: 3.32 µM
- TGI [48]: 3.42 µM
- TGI [49]: 4.91 µM
- TGI [59]: > 22.2 µM
- TGI [50]: 2.94 µM
- TGI [51]: 3.61 µM
- TGI [52]: 5.54 µM
- TGI [53]: 3.06 µM
- TGI [54]: 7.16 µM
- TGI [55]: 3.64 µM
- TGI [56]: 3.55 µM

Compound: COc1ccc(/C=C(/C(=O)c2ccc(Cl)cc2)N2C=CC=CC2=C(C#N)C#N)cc1OC
- TGI [1]: 5.29 µM
- TGI [2]: 30.5 µM
- TGI [3]: 30.4 µM
- TGI [4]: 11.9 µM
- TGI [5]: 22.5 µM
- TGI [6]: 5.69 µM
- TGI [7]: 0.665 µM
- TGI [8]: 3.32 µM
- TGI [9]: 28.5 µM
- TGI [10]: 10.6 µM
- TGI [11]: 4.2 µM
- TGI [12]: 5.41 µM
- TGI [13]: 6.19 µM
- TGI [14]: 7.79 µM
- TGI [15]: 51.1 µM
- TGI [16]: 13.4 µM
- TGI [17]: 26.3 µM
- TGI [18]: 13.1 µM
- TGI [19]: 14.9 µM
- TGI [21]: 42.1 µM
- TGI [22]: 8.3 µM
- TGI [23]: 11.4 µM
- TGI [24]: 2.91 µM
- TGI [25]: 16.9 µM
- TGI [26]: 21.6 µM
- TGI [27]: 19.1 µM
- TGI [28]: 20.1 µM
- TGI [29]: 4.64 µM
- TGI [58]: 38.4 µM
- TGI [30]: 27.5 µM
- TGI [31]: 25.5 µM
- TGI [32]: 0.953 µM
- TGI [33]: 44.9 µM
- TGI [34]: 15.2 µM
- TGI [35]: 20.5 µM
- TGI [36]: 32.6 µM
- TGI [37]: 16.1 µM
- TGI [38]: 12.9 µM
- TGI [39]: 8.59 µM
- TGI [40]: 4.75 µM
- TGI [41]: 17.2 µM
- TGI [42]: > 85.3 µM
- TGI [43]: 22.3 µM
- TGI [44]: 29.7 µM
- TGI [45]: 11.5 µM
- TGI [46]: 22.9 µM
- TGI [57]: > 82.1 µM
- TGI [47]: 47.7 µM
- TGI [48]: 32.1 µM
- TGI [49]: 20.3 µM
- TGI [50]: > 32.9 µM
- TGI [51]: 29.4 µM
- TGI [52]: 17.8 µM
- TGI [53]: 24.4 µM
- TGI [54]: 17.2 µM
- TGI [55]: 28.2 µM
- TGI [56]: 3.44 µM
